ChEMBL document CHEMBL1127880, “1H-1,2,4-triazole angiotensin II receptor antagonists: N-phenylpyridinylmethyl and N-pyridinylphenylmethyl analogs of SC-50560” (Bioorg Med Chem Lett, 1994)

Key:
Oryctolagus cuniculus = species: Oryctolagus cuniculus; assay: Evaluated for antagonism of AII contracted rabbit aortic rings; type: functional; details: Aorta, read-out: pA2 (converted)
Angiotensin II receptor = target: T1, Angiotensin II receptor (Rattus norvegicus, UniProt P29089+P25095+P35351); assay: Tested in vitro for inhibition of [125I]AII to rat uterine membranes; type: cell membranes, Membrane
T1 sequence (P29089 whole entry): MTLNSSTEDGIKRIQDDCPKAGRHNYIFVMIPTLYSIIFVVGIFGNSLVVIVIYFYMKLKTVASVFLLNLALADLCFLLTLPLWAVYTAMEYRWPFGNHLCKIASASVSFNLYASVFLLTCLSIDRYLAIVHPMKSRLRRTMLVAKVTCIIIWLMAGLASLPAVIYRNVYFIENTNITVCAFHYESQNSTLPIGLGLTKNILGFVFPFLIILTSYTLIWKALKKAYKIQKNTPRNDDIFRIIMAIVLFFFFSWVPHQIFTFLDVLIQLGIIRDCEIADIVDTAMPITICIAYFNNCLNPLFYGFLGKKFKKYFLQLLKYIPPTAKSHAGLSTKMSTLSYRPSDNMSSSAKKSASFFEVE
T1 sequence (P25095 whole entry): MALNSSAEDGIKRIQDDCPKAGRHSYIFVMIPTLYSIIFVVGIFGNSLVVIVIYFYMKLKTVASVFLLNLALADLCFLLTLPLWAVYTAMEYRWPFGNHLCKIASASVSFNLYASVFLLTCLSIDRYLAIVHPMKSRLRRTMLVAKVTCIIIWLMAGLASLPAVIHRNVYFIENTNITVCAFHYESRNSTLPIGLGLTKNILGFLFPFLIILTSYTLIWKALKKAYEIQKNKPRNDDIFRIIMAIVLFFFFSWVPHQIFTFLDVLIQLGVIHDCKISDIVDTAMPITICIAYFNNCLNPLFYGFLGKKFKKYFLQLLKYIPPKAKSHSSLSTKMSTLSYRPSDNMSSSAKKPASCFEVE
T1 sequence (P35351 whole entry): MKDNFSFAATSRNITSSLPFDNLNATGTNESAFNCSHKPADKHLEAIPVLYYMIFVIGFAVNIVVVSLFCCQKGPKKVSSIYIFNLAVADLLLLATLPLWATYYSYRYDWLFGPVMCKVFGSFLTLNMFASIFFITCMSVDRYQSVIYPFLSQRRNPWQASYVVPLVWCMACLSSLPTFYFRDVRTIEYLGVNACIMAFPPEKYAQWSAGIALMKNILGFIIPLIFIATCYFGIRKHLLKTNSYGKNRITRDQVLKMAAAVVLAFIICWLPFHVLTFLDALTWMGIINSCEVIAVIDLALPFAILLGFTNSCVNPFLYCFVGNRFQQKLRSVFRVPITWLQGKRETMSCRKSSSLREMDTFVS

| IC50 (Angiotensin II receptor) | Structure (SMILES) | Kb (Oryctolagus cuniculus) |
| --- | --- | --- |
| 150 nM | CCCCc1nc(CCCC)n(Cc2ccc(-c3cnccc3-c3nn[nH]n3)cc2)n1 | 63.1 nM |
| 250 nM | CCCCc1nc(CCCC)n(Cc2ccc(-c3ccncc3-c3nn[nH]n3)cc2)n1 | – |

The next lines start with the compound.

| Structure (SMILES) | IC50 (Angiotensin II receptor) | Kb (Oryctolagus cuniculus) |
| --- | --- | --- |
| CCCCc1nc(CCCC)n(Cc2ccc(-c3ccccc3-c3nn[nH]n3)cn2)n1 | – | 10 nM |
| CCCCc1nc(CCCC)n(Cc2ccc(-c3ncccc3-c3nn[nH]n3)cc2)n1 | 98 nM | 158 nM |
| CCCCc1nc(CCCC)n(Cc2ccc(-c3cccnc3-c3nn[nH]n3)cc2)n1 | 110 nM | 126 nM |
